Laboratory results: patent US20260217701A1, “SELECTIVE BET INHIBITORS AND USES THEREOF” (Tay Therapeutics Limited, priority 2022, published 2026)
“And” between values parts separate entries of the source, which are not always exact repeats. Identical values can stand only once.

Assay: Dog PK study #3 (Compound A PO once daily 5 days, 5/10/20 mg/kg; PK, body weight, hematology)
Type: in vivo, beagle dogs
Set-up: Plasma Concentration: unit not given here
Conditions: for Neutrophils: range 1.80-10.83; for White Blood Cells: range 4.81-15.67; for Platelets: range 127-393; for Accumulative Index of AUC0-last (Day 5/Day 1) / Accumulative Index of Cmax (Day 5/Day 1): PO
Protocol: For the third dog pharmacokinetic study, three solutions of different concentrations of Compound A were prepared in 5% DMSO/15% PEG-400/80% (10% VE-TPGS) as outlined in Table 2E. The Compound A solutions were administered to animals orally (PO) once daily over a five-day period. Body weight was recorded prior to dosing, and detailed clinical observations were made prior to dosing and throughout the study, as needed.
Animals were divided into Day 1 and Day 5 sample collection groups, with animals in the Day 1 collection group having blood samples taken prior to dosing and at 0.25, 0.5, 1, 2, 4, 8, and 24 hours after dosing on day 1. Animals in the Day 5 collection group having blood samples taken prior to dosing and at 0.25, 0.5, 1, 2, 4, 8, and 24 hours after dosing on day 5. Study groups are outlined in Table 3D.
Blood samples (~0.3 mL) were collected on day according to the following schedule (0.25, 0.5, 1, 2, 4, 8, and 24 h) after day 5 administration of Compound A by venipuncture of peripheral veins except for the dosing vein, and EDTA-K2 was used as anticoagulant. Within 30 minutes of collection, the samples were centrifuged at approximately 2000 times g-force for 10 minutes at 4° C. to obtain blood plasma. The plasma samples were immediately divided into two aliquots (~75 μL each), transferred to a cryogenic vial, and stored in a freezer at −75±15° C. prior to analysis.
The concentration of Compound A in the blood plasma was determined through LC-MS as previously described. Briefly, the experiments were conducted on a DMPK-LCMS-14-SMBA Triple Quad 6500 Plus instrument with an ACQUITY UPLC BEH C18 1.7 μm (50×2.1 mm) column. The matrix was male beagle dog plasma potassium (K2) EDTA A gradient of 95% water (0.1% formic acid and 2 mM HCOONH4)/95% acetonitrile (0.1% formic acid and 2 mM HCOONH4) was used as the mobile phase. The sample flow rate was 0.6 mL/min.
The samples were then vortex-mixed for 10 minutes at 800 rpm and centrifuged for 15 minutes at 3220×g at 4° C. 50 μL aliquots of supernatant were transferred to a clean 96-well plate and centrifuged for 5 minutes at 3220×g at 4° C. Samples were then injected into the LC/MS/MS system for quantitative analysis.
The gathered data were used for pharmacokinetic calculations using T1/2, CO, AUClast, AUCinf, MRTinf, Cl, Vss, and Number of Points for Regression as parameters.
The cell composition (hematology) of blood samples was analyzed at day 5. Analyses identified the total number of white blood cells, neutrophils, lymphocytes, monocytes, eosinophils, basophils, and platelets in collected samples.

[1] = Day 5, 10 mg/kg dose PO, individual animals
[2] = Day 5, 20 mg/kg dose PO, individual animals
[3] = Day 5, Group 1, individual animals
[4] = Day 5, Group 2, individual animals
[5] = Day 5, Group 3, individual animals

Cn1cc(-c2ccccc2)c(-c2cn(C)c(=O)c3[nH]c(-c4cnn(C(F)(F)F)c4)cc23)cc1=O [Compound A, 6-methyl-4-(1-methyl-2-oxo-5-phenyl-1,2-dihydropyridin-4-yl)-2-(1-(trifluoromethyl)-1H-pyrazol-4-yl)-1,6-dihydro-7H-pyrrolo[2,3-c]pyridin-7-one]
Neutrophils (Day 5, 5 mg/kg/day (mean)): 7.08 10^3/μL
White Blood Cells (Day 5, 5 mg/kg/day (mean)): 10.59 103/μL
Platelets (Day 5, 5 mg/kg/day (mean)): 224.0 10^3/μL
Plasma Concentration (Day 5, 10 mg/kg dose PO, time 1, individual animals): 1610 and 2220
Plasma Concentration (Day 5, 10 mg/kg dose PO, time 1, mean): 1915
Plasma Concentration (Day 5, 10 mg/kg dose PO, time 2, individual animals): 1740 and 2780
Plasma Concentration (Day 5, 10 mg/kg dose PO, time 2, mean): 2260
Plasma Concentration (Day 5, 10 mg/kg dose PO, time 4, individual animals): 1460 and 2310
Plasma Concentration (Day 5, 10 mg/kg dose PO, time 4, mean): 1885
Plasma Concentration (Day 5, 10 mg/kg dose PO, time 8, individual animals): 1190 and 1940
Plasma Concentration (Day 5, 10 mg/kg dose PO, time 8, mean): 1565
AUC0-last [1]: 36.083 µg·h/mL
AUC(0-inf) [1]: 45.289 µg·h/mL
AUCExtra [1]: 10.6% and 20.3%
AUMCExtra [1]: 32.6% and 51.3%
Cl_F [1]: 7.25 mL/min/kg and 3.68 mL/min/kg
Cmax [1]: 2780 ng/mL
MRT0-inf [1]: 15.4 h
MRT0-last [1]: 9.39 h
Tlast [1]: 24.0 h
T½ [1]: 10.3 h
Vz_F [1]: 4.58 L/kg and 3.27 L/kg
AUC0-last (Day 5, 10 mg/kg dose PO, mean): 28.307 µg·h/mL
AUCExtra (Day 5, 10 mg/kg dose PO, mean): 15.5%
AUMCExtra (Day 5, 10 mg/kg dose PO, mean): 42.0%
Cl_F (Day 5, 10 mg/kg dose PO, mean): 5.47 mL/min/kg
Tlast (Day 5, 10 mg/kg dose PO, mean): 24.0 h
Vz_F (Day 5, 10 mg/kg dose PO, mean): 3.92 L/kg
Basophils (Day 5, 10 mg/kg/day (mean), range 0.00-0.19): 0.07 10^3/μL
Eosinophils (Day 5, 10 mg/kg/day (mean), range 0.00-1.24): 0.40 10^3/μL
Monocytes (Day 5, 10 mg/kg/day (mean), range 0.11-1.08): 0.48 10^3/μL
Lymphocytes (Day 5, 10 mg/kg/day (mean), range 1.42-3.76): 3.31 10^3/μL
Neutrophils (Day 5, 10 mg/kg/day (mean)): 6.59 10^3/μL
White Blood Cells (Day 5, 10 mg/kg/day (mean)): 10.86 103/μL
Platelets (Day 5, 10 mg/kg/day (mean)): 273.0 10^3/μL
Plasma Concentration (Day 5, 20 mg/kg dose PO, time 1, individual animals): 3150 and 2130
Plasma Concentration (Day 5, 20 mg/kg dose PO, time 1, mean): 2640
Plasma Concentration (Day 5, 20 mg/kg dose PO, time 2, individual animals): 3510 and 2220
Plasma Concentration (Day 5, 20 mg/kg dose PO, time 2, mean): 2865
Plasma Concentration (Day 5, 20 mg/kg dose PO, time 4, individual animals): 3160 and 2040
Plasma Concentration (Day 5, 20 mg/kg dose PO, time 4, mean): 2600
Plasma Concentration (Day 5, 20 mg/kg dose PO, time 8, individual animals): 2430 and 2170
Plasma Concentration (Day 5, 20 mg/kg dose PO, time 8, mean): 2300
AUC0-last [2]: 43.537 µg·h/mL and 16.801 µg·h/mL
AUC(0-inf) [2]: 49.399 µg·h/mL and 2087.5 µg·h/mL
AUCExtra [2]: 11.9% and 99.2%
AUMCExtra [2]: 35.5% and 100%
Cl_F [2]: 6.75 mL/min/kg and 0.160 mL/min/kg
Cmax [2]: 2220 ng/mL
MRT0-inf [2]: 11.7 h and 955 h
MRT0-last [2]: 8.57 h and 4.03 h
Tlast [2]: 24.0 h and 8.00 h
T½ [2]: 7.64 h
Vz_F [2]: 4.46 L/kg and 9.29 L/kg
AUC0-last (Day 5, 20 mg/kg dose PO, mean): 30.169 µg·h/mL
AUCExtra (Day 5, 20 mg/kg dose PO, mean): 55.6%
AUMCExtra (Day 5, 20 mg/kg dose PO, mean): 67.8%
Cl_F (Day 5, 20 mg/kg dose PO, mean): 3.45 mL/min/kg
Vz_F (Day 5, 20 mg/kg dose PO, mean): 6.87 L/kg
Animal body weight [3]: 8.22 kg and 9.18 kg
Clinical Observation [3]: None
Animal Body Weight, Mean (Day 5, Group 1, mean): 8.70 kg
Animal body weight [4]: 9.31 kg and 8.43 kg
Clinical Observation [4]: None
Animal Body Weight, Mean (Day 5, Group 2, mean): 8.87 kg
Animal body weight [5]: 8.88 kg and 8.11 kg
Clinical Observation [5]: None
Animal Body Weight, Mean (Day 5, Group 3, mean): 8.50 kg
Accumulative Index of AUC0-last (Day 5/Day 1) (dose level 5.00 mg/kg): 1.53
Accumulative Index of Cmax (Day 5/Day 1) (dose level 5.00 mg/kg): 1.57
Accumulative Index of AUC0-last (Day 5/Day 1) (dose level 10.0 mg/kg): 1.62
Accumulative Index of Cmax (Day 5/Day 1) (dose level 10.0 mg/kg): 1.31
Accumulative Index of AUC0-last (Day 5/Day 1) (dose level 20.0 mg/kg): 0.445
Accumulative Index of Cmax (Day 5/Day 1) (dose level 20.0 mg/kg): 0.555
time plasma concentration remained above the free EC50 BD2 (all doses administered): 24 h
white blood cell fraction parameters (day 5): within range
AUC(0-t) (male, beagle, dog, plasma, po, 5 mg/kg, Day 1, 5 mg/kg dose PO, individual animals): 11.6 µg·h/mL
